Experiment [1] has as its system subcutaneous fat-derived stein cells. The following applies: for adipogenesis (fat staining with Nile red): FIG. 5. On the procedure: (§1) Onto a 96-well plate (manufactured by IWAKI), 2 μL of FBS-free DMEM containing 1.2% by weight (final concentration) of the defibered collagen component, 6 mg/mL (final concentration) fibrinogen, 3 U/mL (final concentration) thrombin, and 5×10^6 cells/mL of subcutaneous fat-derived stein cells was seeded and incubated for 15 minutes, 200 μL of DMEM culture medium was then added, and culture was performed for 48 hours.

The test system is the same in experiment [2]. As to conditions: day 7 of differentiation. On the procedure:
as §1
The three-dimensional tissue constructs obtained were each subjected to fat staining with Nile red, and Hoechst staining for staining nuclei. In the same manner as in Production Example 1, fluorescence intensity for fat staining (Nile red) relative to fluorescence intensity for nucleic staining (Hoechst) was calculated, and increase rates of fluorescence intensity with reference to that of the three-dimensional tissue constructs cultured in DMEM culture medium containing no ALK5 inhibitor were calculated (three samples were used for each conditions).

Like-named read-outs stand apart in the source and are kept apart here.

For `Cc1cccc(-c2n[nH]cc2-c2ccc3ncccc3n2)n1` [ALK5 inhibitor, 2-[3-(6-methyl-2-pyridinyl)-1H-pyrazol-4-yl]-1,5-naphthyridine], the “adipogenesis (fat staining with Nile red)” value in experiment [1] (ALK5 inhibitor 5 μM with seven fatty acids each in 50 IIM, day 3, day 7 and day 14 of differentiation) was “had proceeded”; in experiment [1] (ALK5 inhibitor 5 μM, day 7 of culture and day 14 of culture (in particular)), “had more proceeded”; in experiment [2] (ALK5 inhibitor 1, 5 or 10 μM in DMEM with seven fatty acids each 50 μM, vs medium containing no ALK5 inhibitor, FIG. 3) it was “had proceeded more”. Moreover, the “difference in increase rates of fluorescence intensity between day 7 and day 14 of culture” value in experiment [1] (ALK5 inhibitor 5 μM, FIG. 6) was “No large difference”. Further, the “increase in fluorescence intensity vs medium containing no ALK5 inhibitor” value in experiment [1] (ALK5 inhibitor 5 μM, day 7 of culture and day 14 of culture, FIG. 6) is “significant”. Moreover, the “increase in fluorescence intensity (Nile red relative to Hoechst)” value in experiment [2] (5 μM or more of the ALK5 inhibitor in DMEM with seven fatty acids each 50 μM, vs no ALK5 inhibitor, FIG. 4) is at least 3 fold. The “differentiation of fat-derived stein cells into mature adipocytes” value in experiment [2] (addition of the ALK5 inhibitor to DMEM with seven fatty acids each 50 μM) is listed as “promoted”.

The values above are taken from patent publication US20240117313A1, “METHOD FOR PRODUCING THREE-DIMENSIONAL TISSUE BODY AND METHOD FOR PROMOTING DIFFERENTIATION OF ADIPOSE-DERIVED STEM CELLS” (TOPPAN INC., priority 2021, published 2024).
